Measurements published in PMC10539439 (Pharmacological Reports, 2023).

Key:
[1] = Blood pressure of anaesthetized normotensive rats; type: in vivo, rat; details: thiopental-anaesthetized rats
Protocol: Eighteen normotensive rats were anaesthetized with thiopental (70 mg/kg) by ip injection. The left carotid artery was cannulated with tubing filled with heparin solution in saline to facilitate pressure measurements using Apparatus PowerLab 4/35 (ADInstruments, Australia). Blood pressure was measured: before ip administration of 4-OH-Guanabenz at the doses of 2 or 5 or 10 mg/kg b.w. or water – time 0 min (control pressure) and continuously during the next 60 min.

[2] = Pharmacokinetics in plasma after ip administration; type: in vivo, rat
Protocol: For the pharmacokinetic study, a group of 56 adult male rats (Wistar, 220–250 g, […]) were used in the experiment. Animals were purchased from the Animal House of the Faculty of Pharmacy of Jagiellonian University Medical College, Krakow, Poland. During the habituation period, the groups of 4 rats were kept in a plastic cage at a controlled room temperature (22 ± 2 ℃), humidity (55 ± 10%), full-spectrum cold white light (350–400 lx), in 12 h light/dark cycles (the lights on at 7:00 am, and off at 19:00 pm), and had free access to standard laboratory pellet and tap water. […] These were then given through an intraperitoneally injections (ip) at a dose of 0.3 mg/kg and 0.4 mg/kg, respectively. Blood samples were collected at 0 min (predose), 5 min, 15 min, 30 min, 60 min, 120 min, and 240 min after compound administration. Blood and brain samples were collected under general anesthesia induced by ip injections of 50 mg/kg ketamine plus 8 mg/kg xylazine. Blood samples were taken in heparinized tubes and immediately centrifuged at 3500 rpm for 10 min, and plasma was collected. Brain and plasma samples were immediately frozen at – 80 ℃ for LC/MS/MS analysis. All experimental procedures were carried out according to EU Directive 2010/63/EU and approved by the I Local Ethics Committee for Animal Experiments of the Jagiellonian University in Krakow, Poland (No. 94/2016).
The pharmacokinetic parameters were calculated using a non-compartmental approach from the average concentration values, using Phoenix WinNonlin software (Certara, Princeton, NJ 08540 USA). The first-order elimination rate constant (λz) was calculated by linear regression of time versus log concentration. Next, the area under the mean plasma and the concentration in the brain versus the time curve (AUC0→t) were estimated using the log-linear trapezoidal rule (Eq. 1), where Cn is the concentration of the last sampling of each compound1 AUC0→t=∑i=1n(Ci+Ci+1)/2·ti+1-ti+Cn/λz.
The area under the first-moment curve (AUMC0→t) was estimated by calculating of the total area under the first-moment curve using Eq. 2, where tn is the time of last sampling2 AUMC0→t=∑i=1n(ti·Ci+ti+1·Ci+1)/2·ti+1-ti+(tn·Cn)/λz+Cn/λz2.
Mean residence time (MRT, Eq. 3) was calculated as3 MRT=AUMC0→t/AUC0→t.
Total clearance (ClT, Eq. 4) was calculated as4 C1T=F·Di.p./AUC0→t.
The quantification of compounds in plasma and brain samples was performed using the Sciex API 3200 triple quadrupole mass spectrometer (Concord, Ontario, Canada) equipped with an electrospray (ESI) ionization interface. This instrument was coupled to an Elite LaChrom (Hitachi, USA) HPLC system. Data acquisition and processing were performed using Sciex Analyst 1.5.2 data collection and integration software. After preparation, the samples were injected (20 µL) onto XBridge C18 (2.1 mm × 30 mm, 3.5 μm, Waters, Milford, Massachusetts, USA) analytical column. The mobile phase consisted of 0.1% formic acid in acetonitrile (A) and 0.1% formic acid in water (B) was delivered in a gradient elution starting with 90% of eluent B, increasing for 2 min to 90% of eluent A, maintained for 3 min, and then returned for 5 min to 90% of eluent B, and maintained 90% of eluent B during 5 min at a flow rate of 300 µL/min. The total analysis time was 10 min. […] The ion spray source settings were as follows: spray voltage: 5.5 kV, heater temperature: 400 °C, curtain gas: 10 psi, source gas 1: 20 psi, and source gas 2: 20 psi.
Further dilutions were performed using the same solvent to prepare working standard solutions of the analyte at the following concentrations: 0.025, 0.05, 0.1, 0.25, 0.5, 1.0, 2.5, 5.0, 10, 25, and 50 µg/mL for calibration curve samples (CC) and 0.025, 0.075, 2.2, and 4.5 µg/mL for quality control samples (QC). […]

Cl.N=C(N)NN=Cc1c(Cl)cc(O)cc1Cl [4-OH-Guanabenz, 2-[(2,6-Dichloro-4-hydroxyphenyl)methylene]hydrazinecarboximidamide Hydrochloride]
effect on diastolic pressure (in words) ([1]; 10 mg/kg b.w., 10th minute after administration): short-term increase
effect on blood pressure (in words) ([1]; single dose 2 or 5 mg/kg b.w., vs water): not significantly different
concentration at 5 min ([2]; male, Wistar, rat, intraperitoneal, plasma, 5 min after administration, mean): 54.3 ng/mL
concentration at 15 min ([2]; male, Wistar, rat, intraperitoneal, plasma, 15 min after administration, mean): 101 ng/mL
concentration at 30 min ([2]; male, Wistar, rat, intraperitoneal, plasma, 30 min after administration, mean): 20.2 ng/mL
concentration at 60 min ([2]; male, Wistar, rat, intraperitoneal, plasma, 60 min after administration, mean): 41.9 ng/mL
concentration at 120 min ([2]; male, Wistar, rat, intraperitoneal, plasma, 120 min after administration, mean): 8.65 ng/mL
concentration at 240 min ([2]; male, Wistar, rat, intraperitoneal, plasma, 240 min after administration, mean): 6.52 ng/mL
CL/F ([2]; male, Wistar, rat, plasma, ip): 17.7 mL/min/kg
Tmax ([2]; male, Wistar, rat, plasma, ip): 0.25 h
Vd/F ([2]; male, Wistar, rat, plasma, ip): 1.75 L/kg
half-life ([2]; male, Wistar, rat, plasma, ip, rat plasma, ip, Guanabenz 0.3 mg/kg, 4-OH-Guanabenz 0.4 mg/kg, read-out: t0.5 terminal half-life): ~1.15 h
t0.5 terminal half-life ([2]; rat plasma, ip, Guanabenz 0.3 mg/kg, 4-OH-Guanabenz 0.4 mg/kg): 1.14 h
volume of distribution ([2]; rat, ip, Guanabenz 0.3 mg/kg, 4-OH-Guanabenz 0.4 mg/kg): 1.7 L/kg
